Assay results: patent US20130029942A1, “COMPOUNDS AND THERAPEUTICAL USES THEREOF” (Myrexis, Inc., priority 2003, published 2013)

System: T-47D cells
Assay: Caspase cascade activation / induction of apoptosis in T-47D cells (fluorogenic N-(Ac-DEVD)-N'-ethoxycarbonyl-R110 substrate)
Assay type: cell-based, human
Settings: Homo sapiens, T47D, 24 h, read-out: T-47D (24 hr) EC50 (nM)

| SMILES | EC50 |
| --- | --- |
| COc1ccc(N(C)c2nc(C)nc3cc([N+](=O)[O-])ccc23)cc1 [Example 112, (4-Methoxy-phenyl)-methyl-(2-methyl-7-nitro-quinazolin-4-yl)-amine] | > 10000 nM |

Same assay, conditions: Homo sapiens, T47D; T-47D, 24 hr; read-out: T-47D (24 hr) EC50

| SMILES | EC50 |
| --- | --- |
| COc1ccc(Nc2nc(Cl)nc3cc(OC)c(OC)cc23)cc1 [Example 21, (2-Chloro-6,7-dimethoxyquinazolin-4-yl)-(4-methoxy-phenyl)-amine] | > 10000 nM |
| COc1cccc(N(C)c2nc(Cl)nc3ccccc23)c1OC [Example 39, (2-Chloro-quinazolin-4-yl)-(2,3-dimethoxy-phenyl)-methyl-amine] | 693 nM |
| CN(c1ccc(Cl)cc1)c1nc(Cl)nc2ccccc12 [Example 3, (2-Chloro-quinazolin-4-yl)-(4-chloro-phenyl)-methyl-amine] | 79 nM |
| Cc1nc(Nc2ccc(OC(C)C)cc2)c2ccccc2n1 [Example 80, (4-Isopropoxy-phenyl)-(2-methyl-quinazolin-4-yl)-amine] | 5750 nM |
| COc1ccc(N(c2nc(Cl)nc3ccccc23)C(C)C)cc1 [Example 37, (2-Chloro-quinazolin-4-yl)-isopropyl-(4-methoxy-phenyl)-amine] | 2690 nM |
| Cc1nc(Nc2ccc(OC(F)F)cc2)c2ccccc2n1 [Example 78, (4-Difluoromethoxy-phenyl)-(2-methyl-quinazolin-4-yl)-amine] | > 10000 nM |
| COc1ccc(N(C)c2nc(CN(C)C)nc3ccccc23)cc1 [Example 77, (2-Dimethylaminomethyl-quinazolin-4-yl)-(4-methoxy-phenyl)-methyl-amine] | 700 nM |
| COc1ccc(Nc2nc(Cl)nc3ccccc23)cn1 [Example 28, (2-Chloro-quinazolin-4-yl)-(6-methoxy-pyridin-3-yl)-amine] | > 10000 nM |

Now from value to compound:

| EC50 | SMILES |
| --- | --- |
| 8 nM | CNc1nc(N(C)c2ccc(OC)cc2)c2ccccc2n1 [Example 123, (2-Methylamino-quinazolin-4-yl)-(4-methoxy-phenyl)-methyl-amine] |
| > 10000 nM | CN(c1nc(Cl)nc2ccccc12)[C@H]1CC[C@H](C)CC1 [Example 133, (2-Chloro-quinazolin-4-yl)-(trans-4-methylcyclohexyl)-methyl-amine] |
| 2 nM | Cc1nc(N(C)c2ccc(N(C)C)cc2)c2ccccc2n1 [Example 105, (4-Dimethylamino-phenyl)-(2-methyl-quinazolin-4-yl)-methyl-amine] |
| 4 nM | COc1ccc(N(C)c2nc(C)nc3ccccc23)c(F)c1 [Example 99, (2-Fluoro-4-methoxy-phenyl)-(2-methyl-quinazolin-4-yl)-methyl-amine] |
| > 10000 nM | CN(c1nc(Cl)nc2ccccc12)[C@H]1CC[C@@H](C)CC1 [Example 132, (2-Chloro-quinazolin-4-yl)-(cis-4-methylcyclohexyl)-methyl-amine] |
| 552 nM | Cc1nc(N(C)c2c(Br)cc(N)cc2Br)c2ccccc2n1 [Example 103, (4-Amino-2,6-dibromo-phenyl)-(2-methyl-quinazolin-4-yl)-methyl-amine] |
| 16 nM | COc1ccc(N(C)c2nc(C)nc3ncccc23)cc1 [Example 92, (4-Methoxy-phenyl)-(2-methyl-pyrido[2,3-d]pyrimidin-4-yl)-methyl-amine] |
| > 10000 nM | COc1cnc(Nc2nc(C)nc3ccccc23)nc1 [Example 141, (5-Methoxy-pyrimidin-2-yl)-(2-methyl-quinazolin-4-yl)-amine] |
| 4290 nM | Cc1nc(N(C)c2ccc(C(=O)ON3C(=O)CCC3=O)cc2)c2ccccc2n1 [Example 119, Succinimidyl 4-(N-Methyl-N-(2-methylquinazolin-4-yl)amino)benzoic acid ester] |
| 2 nM | COc1ccc(N(C)c2nc(C)nc3ccccc23)cc1F [Example 85, (3-Fluoro-4-methoxy-phenyl)-(2-methyl-quinazolin-4-yl)-methyl-amine] |
| 8 nM | COc1ccc(N(C)c2nc(SC)nc3ccccc23)cc1 [Example 120, (2-Methylthio-quinazolin-4-yl)-(4-methoxy-phenyl)-methyl-amine] |
| 5 nM | CCOc1ccc(N(C)c2nc(C)nc3ccccc23)cc1 [Example 107, (4-Ethoxy-phenyl)-(2-methyl-quinazolin-4-yl)-methyl-amine] |
| 2 nM | COc1ccc(N(C)c2nc(Cl)nc3cccc(Cl)c23)cc1 [Example 90, (2,5-Dichloro-quinazolin-4-yl)-(4-methoxy-phenyl)-methyl-amine] |
| 55 nM | COc1cnc(N(C)c2nc(C)nc3ccccc23)cn1 [Example 126, (5-Methoxy-pyrazin-2-yl)-(2-methyl-quinazolin-4-yl)-methyl-amine] |
| > 10000 nM | COc1ccc(Nc2nc(C)nc3ccccc23)cn1 [Example 95, (2-Methyl-quinazolin-4-yl)-(6-methoxy-pyridin-3-yl)-amine] |
| > 10000 nM | COc1c(Br)cc(N(C)c2nc(C)nc3ccc([N+](=O)[O-])cc23)cc1Br [Example 115, (3,5-Dibromo-4-methoxy-phenyl)-(2-methyl-6-nitro-quinazolin-4-yl)-methyl-amine] |

Same assay, conditions: Homo sapiens, T47D; T-47D, 48 hr; benzohydrazide table; read-out: T-47D (48 hr) EC50

| EC50 | SMILES |
| --- | --- |
| 39 nM | COc1ccc(C(=O)NN(C)c2nc(C(F)(F)F)nc3ccccc23)cc1 |

Same assay, conditions: Homo sapiens, T47D; T-47D, 48 hr; read-out: T-47D (48 hr) EC50

| EC50 | SMILES |
| --- | --- |
| > 10000 nM | COc1ccc(Nc2nc(Cl)nc3cc(OC)c(OC)cc23)cc1 [Example 21, (2-Chloro-6,7-dimethoxyquinazolin-4-yl)-(4-methoxy-phenyl)-amine] |
| > 10000 nM | COc1cccc(Nc2nc(Cl)nc3ccccc23)c1 [Example 32, (2-Chloro-quinazolin-4-yl)-(3-methoxy-phenyl)-amine] |
| 316 nM | COc1ccc(N(C)c2nc(Cl)nc3cc(Cl)ccc23)cc1 [Example 62, (2,7-Dichloro-quinazolin-4-yl)-(4-methoxy-phenyl)-methyl-amine] |
| 48 nM | COc1ccc(N(C)c2nc(NO)nc3ccccc23)cc1 [Example 10, N^2-Hydroxyl-N^4-(4-methoxy-phenyl)-N^4-methyl-quinazoline-2,4-diamine] |
| 42 nM | CCCOc1ccc(N(C)c2nc(Cl)nc3ccccc23)cc1 [Example 70, (2-Chloro-quinazolin-4-yl)-(4-propoxy-phenyl)-methyl-amine] |
| 178 nM | COc1ccc(CN(C)c2nc(Cl)nc3ccccc23)cc1 [Example 26, (2-Chloro-quinazolin-4-yl)-(4-methoxy-benzyl)-methyl-amine] |
| > 1000 nM | CN(c1ccc(Oc2ccccc2)cc1)c1nc(Cl)nc2ccccc12 [Example 69, (2-Chloro-quinazolin-4-yl)-(4-phenoxy-phenyl)-methyl-amine] |
| > 10000 nM | COc1ccc(N(C)c2nc(NCCO)nc3cc(OC)c(OC)cc23)cc1 [Example 50, N^2-(2-Hydroxyethyl)-N^4-(4-methoxy-phenyl)-N^4-methyl-6,7-dimethoxyquinazoline-2,4-diamine] |
| 187 nM | COc1ccc(N(C)c2nc(NCCCN(C)C)nc3ccccc23)cc1 [Example 47, N^2-(3-Dimethylamino-propyl)-N^4-(4-methoxy-phenyl)-N^4-methyl-quinazoline-2,4-diamine] |
| 5 nM | COc1ccc(N(C)c2nc(Cl)nc3ccc(C)cc23)cc1 [Example 56, (2-Chloro-6-methyl-quinazolin-4-yl)-(4-methoxy-phenyl)-methyl-amine] |
| 46 nM | CN(c1ccc(O)cc1)c1nc(Cl)nc2ccccc12 [Example 54, (2-Chloro-quinazolin-4-yl)-(4-hydroxyphenyl)-methylamine] |
| 2110 nM | COc1ccc(N(C)c2nc(CN(C)C)nc3ccccc23)cc1 [Example 77, (2-Dimethylaminomethyl-quinazolin-4-yl)-(4-methoxy-phenyl)-methyl-amine] |
| > 10000 nM | COc1ccc(Nc2nc(Cl)nc3ccccc23)cn1 [Example 28, (2-Chloro-quinazolin-4-yl)-(6-methoxy-pyridin-3-yl)-amine] |
| 47 nM | CCN(c1ccc(OC)cc1)c1nc(Cl)nc2ccccc12 [Example 40, (2-Chloro-quinazolin-4-yl)-ethyl-(4-methoxy-phenyl)-amine] |

Same assay, conditions: T-47D, 48 hr; benzohydrazide table

| SMILES | T-47D (48 hr) Ratio |
| --- | --- |
| COc1ccc(C(=O)NN(C)c2nc(C(F)(F)F)nc3ccccc23)cc1 | 13.1 |
